The source of these data is patent US4650799A, “Bis-dioxopiperazine derivatives, process for their preparation, antitumor agents comprising them and compositions containing them” (Zenyaku Kogyo Kabushiki Kaisha, priority 1983, dated 1987).

The test system of data set [1] is P388 lymphocytic leukemia. Nature of the data set: Animal Test on P388 Lymphocytic Leukemia (increase in life span). Format: in vivo, mice [CDF1 (BALB/c×DBA/2)]. The settings on record: Mus musculus, P388, ip, i.p.; for ILS at 200 mg/kg: 200 mg/kg × 2 (1st and 5th day); for ILS at 20 mg/kg / ILS at 60 mg/kg: 216 h; for ILS at 20 mg/kg: 20 mg/kg × 9 days; for ILS at 60 mg/kg: 60 mg/kg × 9 days. On the procedure:
The treated group to which the compound of the present invention was administered consisted of seven mice, while the control group consisted of ten mice. Six weeks old male mice [CDF1 (BALB/c×DBA/2), 25±2 g of body weight] were employed as host animals.
Tumor cells (1.0×10^6) of P388 lymphocytic leukemia were transplanted intraperitoneally into each mouse. The treatment began one day after the transplantation and the prescribed dose of each test compound was administered intraperitoneally to the mice once a day for 9 days or on the 1st and 5th day.
Antitumor activity of the test compound was evaluated by the rate of increase in life span (I.L.S.%) which was calculated with the following formula. [formula] T: mean survival time of treated mice C: mean survival time of control mice

The subject of a further data set is B-16 melanoma. Description: Animal Test on B-16 Melanoma (increase in life span). Format: in vivo, mice [BDF1 (C57BL/6×DBA/2)]. The conditions noted are these: Mus musculus, B16, ip, 192 h, i.p., 8 days; for ILS at 20 mg/kg: 20 mg/kg daily; for ILS at 30 mg/kg: 30 mg/kg daily. On the procedure: The treated group to which the compound of the present invention was administered consisted of seven mice, while the control group consisted of ten mice. Six weeks old male mice [BDF1 (C57BL/6×DBA/2) 25±2 g of body weight] were employed as host animals.
Tumor cells (5×10^5) of B-16 melanoma were transplanted intraperitoneally into each mouse. The treatment began one day after the transplantation and the prescribed dose of each test compound was administered intraperitoneally to the mice once a day for 8 days.
Antitumor activity of the test compound was evaluated by the rate of increase in life span (I.L.S.%) which was calculated in the same manner as used in the animal test on P388 lymphocytic leukemia.

In the next data set the test system is Lewis lung carcinoma. Nature of the data set: Animal Test on Lewis Lung Carcinoma (growth inhibition, metastasis). Format: in vivo, mice [BDF1 (C57BL/6×DBA/2)]. The conditions noted are these: orally, 8 days, tumor weight on 20th day. On the procedure: (§1) Antitumor activities of bis-dioxopiperazine derivatives which the present invention concerns were verified by the growth inhibition or the increase of life span in experimental animals with syngenic tumors such as P388 lymphocytic leukemia, Lewis lung carcinoma, B-16 melanoma and Colon Adenocarcinoma No. 38 as shown below.
(§2) The treated group to which the compound of the present invention was administered consisted of seven mice, while the control group consisted of ten mice. Six weeks old male mice [BDF1 (C57BL/6×DBA/2), 25±2 g of body weight] were employed as host animals.
Tumor cells (5×10^5) of Lewis lung carcinoma were transplanted subcutaneously in inguinal region of each mouse. The treatment began one day after the transplantation and the prescribed dose of each test compound was administered orally to the mice once a day for 8 days.
On the 20th day after the transplantation, the tumors of all the mice were excised and weighed. Antitumor activity of the test compound was evaluated by the rate of growth inhibition (G.I.%) which was calculated with the following formula. [formula] T: mean tumor weight of treated mice C: mean tumor weight of control mice

Data set [2] concerns Colon adenocarcinoma No. 38. Description: Animal Test on Colon Adenocarcinoma No. 38 (growth inhibition). Format: in vivo, mice [BDF1 (C57BL/6×DBA/2)]. The settings on record: 60 mg/kg daily, orally, 8 days; tumor weight on 30th day. On the procedure: as §1, §2
Tumor cells (40 mg of fragment) of Colon adenocarcinoma No. 38 were transplanted subcutaneously in inguinal region of each mouse. The treatment began one day after the transplantation and the prescribed dose of each test compound was administered orally to the mice once a day for 8 days.
On the 30th day after the transplantation, the tumors of all the mice were excised and weighed. Antitumor activity of the test compound was evaluated by the rate of growth inhibition (G.I.%) which was calculated in the same manner as used in the animal test on Lewis lung carcinoma.

The nature of another data set: Acute Toxicity Test. The settings on record: mouse, in vivo. On the procedure:
The test group to which the compound of the present invention was administered consisted of ten mice. Five weeks old male mice (ddY, 23±2 g of body weight) were employed as test animals.

What is called ILS is how much longer treated animals lived than controls. High values mean a large benefit in survival, low ones a small benefit in survival. `O=C(OCN1C(=O)CN(CCN2CC(=O)N(COC(=O)c3ccco3)C(=O)C2)CC1=O)c1ccco1` [1,2-bis[4-(2-furoyloxymethyl)-3,5-dioxopiperazin-1-yl]ethane] returned an ILS at 200 mg/kg in data set [1] of more than 200%. For the same molecule, the ILS at 20 mg/kg with B-16 melanoma is 88%.
Turning to `O=C(OCN1C(=O)CN(CCN2CC(=O)N(COC(=O)c3ccccc3)C(=O)C2)CC1=O)c1ccccc1` [1,2-bis(4-benzoyloxymethyl-3,5-dioxopiperazin-1-yl)ethane], the ILS at 20 mg/kg in data set [1] came to 68%; in the data set on B-16 melanoma, 87%. Also, the ILS at 200 mg/kg in data set [1] was found to be 107%.
Usually LD50 stands for the dose at which mortality reaches 50%. Take `CC(C)COC(=O)OCN1C(=O)CN(CCN2CC(=O)N(COC(=O)OCC(C)C)C(=O)C2)CC1=O` [1,2-bis(4-isobutoxycarbonyloxymethyl-3,5-dioxopiperazin-1-yl)ethane]: the ILS at 20 mg/kg in data set [1] turned out to be 78%; in the data set with B-16 melanoma, 86%. This molecule registered an ILS at 60 mg/kg in data set [1] of 175%. The ILS at 200 mg/kg in data set [1] was 138%. Moreover, the G.I. turned out to be 54.4% in the data set on Lewis lung carcinoma (50 mg/kg daily) and 68.8% in data set [2]. For the same molecule, the LD50 was more than 850 mg/kg in “Acute Toxicity Test” (ip, 14 days observation) and more than 1000 mg/kg in the data set “Acute Toxicity Test” (po).
`CC(=O)Oc1ccc(C=CC(=O)OCN2C(=O)CN(CCN3CC(=O)N(COC(=O)C=Cc4ccc(OC(C)=O)c(OC(C)=O)c4)C(=O)C3)CC2=O)cc1OC(C)=O` [1,2-bis[4-(3,4-diacetoxycinnamoyloxymethyl)-3,5-dioxopiperazin-1-yl]ethane]: in data set [1], the ILS at 20 mg/kg turned out to be 35% and the ILS at 200 mg/kg was determined as 51%.
As to `O=C(OCN1C(=O)CN(CCN2CC(=O)N(COC(=O)c3ccccc3Cl)C(=O)C2)CC1=O)c1ccccc1Cl` [1,2-Bis(4-o-chlorobenzoyloxymethyl-3,5-dioxopiperazin-1-yl)ethane], in data set [1], the ILS at 20 mg/kg was found to be 55% and the ILS at 200 mg/kg came out at 90%. The same molecule displayed a G.I. in the data set on Lewis lung carcinoma (40 mg/kg daily) of 43.7%. The molecule also came in with an ILS at 20 mg/kg in the data set with B-16 melanoma of 65%.
In data set [1], `COc1ccccc1C(=O)OCN1C(=O)CN(CCN2CC(=O)N(COC(=O)c3ccccc3OC)C(=O)C2)CC1=O` [1,2-Bis(4-o-methoxybenzoyloxymethyl-3,5-dioxopiperazin-1-yl)ethane] had an ILS at 20 mg/kg of 113% and an increase in lifespan (ILS) at 200 mg/kg of 99%.
In data set [1], `O=C(OCN1C(=O)CN(CCN2CC(=O)N(COC(=O)c3ccccc3F)C(=O)C2)CC1=O)c1ccccc1F` [1,2-bis(4-o-fluorobenzoyloxymethyl-3,5-dioxopiperazin-1-yl)ethane] gave an ILS at 200 mg/kg of 113%.
Same read-out and setting: for `O=C(OCN1C(=O)CN(CCN2CC(=O)N(COC(=O)c3cccs3)C(=O)C2)CC1=O)c1cccs1` [1,2-Bis[4-(2-thenoyloxymethyl)-3,5-dioxopiperazin-1-yl]ethane] the value was 118%.
In turn, `O=C(CSc1ccc(F)cc1)OCN1C(=O)CN(CCN2CC(=O)N(COC(=O)CSc3ccc(F)cc3)C(=O)C2)CC1=O` [1,2-bis(4-p-fluorophenylthioacetoxymethyl-3,5-dioxopiperazin-1-yl)ethane] came in with an ILS at 200 mg/kg in data set [1] of 120%. In the data set on B-16 melanoma (40 mg/kg daily), this molecule displayed an ILS at 40 mg/kg of 83%.
Consider `O=C(COc1ccc(Cl)cc1)OCN1C(=O)CN(CCN2CC(=O)N(COC(=O)COc3ccc(Cl)cc3)C(=O)C2)CC1=O` [1,2-bis(4-p-chlorophenoxyacetoxymethyl-3,5-dioxopiperazin-1-yl)ethane], for which, in data set [1], the ILS at 20 mg/kg amounted to 40% and the ILS at 200 mg/kg was found to be 94%.
In data set [1], `O=C(CSc1ccc(Br)cc1)OCN1C(=O)CN(CCN2CC(=O)N(COC(=O)CSc3ccc(Br)cc3)C(=O)C2)CC1=O` [1,2-bis(4-p-bromophenylthioacetoxymethyl-3,5-dioxopiperazin-1-yl)ethane] yielded an ILS at 200 mg/kg of 108%.
In data set [1], `COc1ccc(C=CC(=O)OCN2C(=O)CN(CCN3CC(=O)N(COC(=O)C=Cc4ccc(OC)cc4)C(=O)C3)CC2=O)cc1` [1,2-bis(4-p-methoxycinnamoyloxymethyl-3,5-dioxopiperazin-1-yl)ethane] showed an ILS at 20 mg/kg of 78% and an ILS at 200 mg/kg of 36%.
On to `CC(C)(Oc1ccc(Cl)cc1)C(=O)OCN1C(=O)CN(CCN2CC(=O)N(COC(=O)C(C)(C)Oc3ccc(Cl)cc3)C(=O)C2)CC1=O` [1,2-bis[4-(2-p-chlorophenoxy-2-methylpropionyloxymethyl)-3,5-dioxopiperazin-1-yl]ethane], for which, in data set [1], the ILS at 20 mg/kg was found to be 63% and the ILS at 200 mg/kg was 114%. For the same molecule, the ILS at 30 mg/kg in the data set with B-16 melanoma was found to be 86%.
In data set [1], `O=C(COc1cc(Cl)c(Cl)cc1Cl)OCN1C(=O)CN(CCN2CC(=O)N(COC(=O)COc3cc(Cl)c(Cl)cc3Cl)C(=O)C2)CC1=O` [1,2-bis[4-(2,4,5-trichlorophenoxyacetoxymethyl)-3,5-dioxopiperazin-1-yl]ethane] returned an ILS at 20 mg/kg of 65% and an ILS at 200 mg/kg of 94%.
On the same counts, the results for `CCOC(=O)OCN1C(=O)CN(CCN2CC(=O)N(COC(=O)OCC)C(=O)C2)CC1=O` [1,2-bis(4-ethoxycarbonyloxymethyl-3,5-dioxopiperazin-1-yl)ethane] are 48% and 45%.
Consider `O=C(Cc1ccccc1)OCN1C(=O)CN(CCN2CC(=O)N(COC(=O)Cc3ccccc3)C(=O)C2)CC1=O` [1,2-bis(4-phenylacetoxymethyl-3,5-dioxopiperazin-1-yl)ethane], for which the ILS at 20 mg/kg in data set [1] is 143%; with B-16 melanoma, 83%. Moreover, in data set [1], the ILS at 200 mg/kg came out at 204%.
In data set [1], `O=C(COc1ccc(Cl)cc1Cl)OCN1C(=O)CN(CCN2CC(=O)N(COC(=O)COc3ccc(Cl)cc3Cl)C(=O)C2)CC1=O` [1.2-Bis[4-(2,4-dichlorophenoxyacetoxymethyl)-3,5-dioxopiperazin-1-yl]ethane] gave an ILS at 20 mg/kg of 49%, an ILS at 60 mg/kg of 105% and an ILS at 200 mg/kg of 72%. Also, in the data set on B-16 melanoma, the ILS at 20 mg/kg was 35%.
With `CC(C)(C)C(=O)OCN1C(=O)CN(CCN2CC(=O)N(COC(=O)C(C)(C)C)C(=O)C2)CC1=O` [1,2-Bis(4-pivaloyloxymethyl-3,5-dioxopiperazin-1-yl)ethane], in data set [1], the ILS at 20 mg/kg amounted to 53% and the ILS at 200 mg/kg amounted to 66%.
On the same counts, the results for `O=C(Cc1ccccc1Cl)OCN1C(=O)CN(CCN2CC(=O)N(COC(=O)Cc3ccccc3Cl)C(=O)C2)CC1=O` [1,2-Bis(4-o-chlorophenylacetoxymethyl-3,5-dioxopiperazin-1-yl)ethane] are 65% and 83%.
In data set [1], `COC(=O)OCN1C(=O)CN(CCN2CC(=O)N(COC(=O)OC)C(=O)C2)CC1=O` [1,2-Bis(4-methoxycarbonyloxymethyl-3,5-dioxopiperazin-1-yl)ethane] registered an ILS at 20 mg/kg of 75% and an ILS at 200 mg/kg of 103%. This molecule showed a G.I. with Lewis lung carcinoma (60 mg/kg daily) of 57.7%. In the data set on B-16 melanoma, this molecule yielded an ILS at 30 mg/kg of 78%. Moreover, in the data set “Acute Toxicity Test” (ip, 14 days observation), the LD50 was approximately 500 mg/kg. In addition, in “Acute Toxicity Test” (po), the LD50 is more than 2000 mg/kg.
In data set [1], `O=C(CCl)OCN1C(=O)CN(CCN2CC(=O)N(COC(=O)CCl)C(=O)C2)CC1=O` [1,2-Bis(4-chloroacetoxymethyl-3,5-dioxopiperazin-1-yl)ethane] displayed an ILS at 20 mg/kg of 54% and an ILS at 200 mg/kg of 38%. Besides, the G.I. in the data set on Lewis lung carcinoma (50 mg/kg daily) stood at 66.8%. In the data set with B-16 melanoma, this molecule displayed an ILS at 20 mg/kg of 38%.
